For 21 compounds, IC50 results are on record in BindingDB's records for doi:10.1016/j.bmcl.2008.01.038 (Inspire Pharmaceuticals, 2008).

The assay is described as follows: Antagonist activity at P2Y12 receptor assessed as platelet aggregation by washed platelet assay.
In general, IC50 refers to the concentration that gives 50% inhibition. As to `CCNC(=O)Nc1ncnc2c1ncn2[C@@H]1O[C@H](CNCc2ccccc2F)[C@H]2O[C@H](/C=C/c3ccccc3)O[C@H]21`, the IC50 was determined as 2550 nM.

Consider `CCNC(=O)Nc1ncnc2c1ncn2[C@@H]1O[C@H](CNCC2CC2C(=O)OCC)[C@H]2O[C@H](/C=C/c3ccccc3)O[C@H]21` (stereo partly specified), for which the IC50 was determined as 4330 nM.

`CCNC(=O)Nc1ncnc2c1ncn2[C@@H]1O[C@H](CN(CC2CC2C(=O)O)CC2CC2C(=O)O)[C@H]2O[C@H](/C=C/c3ccccc3)O[C@H]21` (stereo partly specified): the IC50 turned out to be 580 nM.

For the compound `CCNC(=O)Nc1ncnc2c1ncn2[C@@H]1O[C@H](CCC(=O)O)[C@H]2O[C@H](/C=C/c3ccccc3)O[C@H]21`, the IC50 came out at 495 nM.

For the compound `CCNC(=O)Nc1ncnc2c1ncn2[C@@H]1O[C@H](CNC(=O)c2cccs2)[C@H]2O[C@H](/C=C/c3ccccc3)O[C@H]21`, the IC50 was found to be 2230 nM.

In the case of `CCNC(=O)Nc1ncnc2c1ncn2[C@@H]1O[C@H](CNC(=O)CO)[C@H]2O[C@H](/C=C/c3ccccc3)O[C@H]21`, the half-inhibitory concentration (IC50) stood at 2950 nM.

For `CCNC(=O)Nc1ncnc2c1ncn2[C@@H]1O[C@H](COCc2cccc(C(=O)O)c2)[C@H]2O[C@H](/C=C/c3ccccc3)O[C@H]21`, the IC50 was 616 nM.

With `CCNC(=O)Nc1ncnc2c1ncn2[C@@H]1O[C@H](CS(=O)(=O)CC(C)O)[C@H]2O[C@H](/C=C/c3ccccc3)O[C@H]21` (stereo partly specified), the IC50 stood at 2490 nM.

As for `CCNC(=O)Nc1ncnc2c1ncn2[C@@H]1O[C@H](CN)[C@H]2O[C@H](/C=C/c3ccccc3)O[C@H]21`, the IC50 worked out at 4730 nM.

As to `CCNC(=O)Nc1ncnc2c1ncn2[C@@H]1O[C@H](CNCC2CC2C(=O)O)[C@H]2O[C@H](/C=C/c3ccccc3)O[C@H]21` (stereo partly specified), the IC50 amounted to 2700 nM.

For the compound `CCNC(=O)Nc1ncnc2c1ncn2[C@@H]1O[C@H](C(=O)O)[C@H]2O[C@H](/C=C/c3ccccc3)O[C@H]21`, the IC50 turned out to be 201 nM.

As for `CCNC(=O)Nc1ncnc2c1ncn2[C@@H]1O[C@H](COCC(=O)O)[C@H]2O[C@H](/C=C/c3ccccc3)O[C@H]21`, the half-maximal inhibitory concentration (IC50) was 243 nM.

`CCNC(=O)Nc1ncnc2c1ncn2[C@@H]1O[C@H](CS(=O)(=O)CC(=O)O)[C@H]2O[C@H](/C=C/c3ccccc3)O[C@H]21`: the IC50 turned out to be 2480 nM.

Turning to `CCNC(=O)Nc1ncnc2c1ncn2[C@@H]1O[C@H](CSCC(O)CO)[C@H]2O[C@H](/C=C/c3ccccc3)O[C@H]21` (stereo partly specified), the IC50 was 9900 nM.

On to `CCNC(=O)Nc1ncnc2c1ncn2[C@@H]1O[C@H](CNC(=O)c2ccco2)[C@H]2O[C@H](/C=C/c3ccccc3)O[C@H]21`, for which the IC50 amounted to 4860 nM.

Turning to `CCNC(=O)Nc1ncnc2c1ncn2[C@@H]1O[C@H](CNCC(=O)O)[C@H]2O[C@H](/C=C/c3ccccc3)O[C@H]21`, the IC50 was found to be 513 nM.

Consider `CCNC(=O)Nc1ncnc2c1ncn2[C@@H]1O[C@H](CSCC(=O)O)[C@H]2O[C@H](/C=C/c3ccccc3)O[C@H]21`, for which the IC50 came out at 3800 nM.

With `CCNC(=O)Nc1ncnc2c1ncn2[C@@H]1O[C@H](CC(=O)O)[C@H]2O[C@H](/C=C/c3ccccc3)O[C@H]21`, the IC50 is 663 nM.

Take `CCNC(=O)Nc1ncnc2c1ncn2[C@@H]1O[C@H](CO)[C@H]2O[C@H](/C=C/c3ccccc3)O[C@H]21`: the IC50 came out at 1270 nM.

Regarding `CCNC(=O)Nc1ncnc2c1ncn2[C@@H]1O[C@H](COCc2ccc(C(=O)O)cc2)[C@H]2O[C@H](/C=C/c3ccccc3)O[C@H]21`, the IC50 turned out to be 1310 nM.

As for `CCNC(=O)Nc1ncnc2c1ncn2[C@@H]1O[C@H](COCc2ccccc2C(=O)O)[C@H]2O[C@H](/C=C/c3ccccc3)O[C@H]21`, the IC50 worked out at 40 nM.
